This note sets out measurements from patent publication US10125135B2, “Chemical compounds” (AstraZeneca AB, priority 2016, dated 2018).

Sequence of ERα receptor in MCF-7 human ductal carcinoma breast cell line (P03372 whole entry): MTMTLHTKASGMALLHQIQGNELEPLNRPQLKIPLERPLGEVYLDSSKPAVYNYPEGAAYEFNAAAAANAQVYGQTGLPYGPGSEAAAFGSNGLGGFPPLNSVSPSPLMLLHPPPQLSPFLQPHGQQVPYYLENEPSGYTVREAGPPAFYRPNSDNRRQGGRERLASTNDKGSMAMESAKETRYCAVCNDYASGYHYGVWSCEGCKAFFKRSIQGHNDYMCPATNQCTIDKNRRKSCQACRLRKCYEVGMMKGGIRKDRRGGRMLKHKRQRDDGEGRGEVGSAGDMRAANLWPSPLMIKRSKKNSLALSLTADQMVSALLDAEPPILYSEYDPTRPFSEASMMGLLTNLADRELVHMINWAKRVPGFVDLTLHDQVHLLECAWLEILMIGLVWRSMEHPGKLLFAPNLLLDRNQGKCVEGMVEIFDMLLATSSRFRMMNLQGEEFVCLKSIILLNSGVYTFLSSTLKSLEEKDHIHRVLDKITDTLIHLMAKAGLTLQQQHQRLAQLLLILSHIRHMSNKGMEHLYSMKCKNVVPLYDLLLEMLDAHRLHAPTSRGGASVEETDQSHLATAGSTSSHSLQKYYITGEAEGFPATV

The first assay deals with ERα receptor in MCF-7 human ductal carcinoma breast cell line (Homo sapiens (Human), UniProt P03372). The experiment in a line: MCF-7 ER down regulation assay (immuno-fluorescence). It counts as cell-based. Conditions: MCF-7 cells, 18-22 hours incubation; read-out: ER down regulation IC50 value. As for the experimental part:
MCF-7 ER Down Regulation Assay
The ability of compounds to down-regulate Estrogen Receptor (ER) numbers was assessed in a cell based immuno-fluorescence assay using the MCF-7 human ductal carcinoma breast cell line. MCF-7 cells were revived directly from a cryovial (approx 5×10^6 cells) in Assay Medium (phenol red free Dulbecco's Modified Eagle's medium (DMEM) (Sigma D5921) containing 2mM L-Glutamine and 5% (v/v) Charcoal/Dextran treated foetal calf serum. Cells were syringed once using a sterile 18 G×1.5 inch (1.2×40 mm) broad gauge needle and cell density was measured using a Coulter Counter (Beckman). Cells were further diluted in Assay Medium to a density of 3.75×10^4 cells per mL and 40 μL per well added to transparent bottomed, black, tissue culture treated 384 well plates (Costar, No. 3712) using a Thermo Scientific Matrix WellMate or Thermo Multidrop. Following cell seeding, plates were incubated overnight at 37° C., 5% CO2 (Liconic carousel incubator). Test data was generated using the LabCyte Echo™ model 555 compound reformatter which is part of an automated workcell (Integrated Echo 2 workcell). 10 mM compound stock solutions of the test compounds were used to generate a 384 well compound dosing plate (Labcyte P-05525-CV1). […] 40 μΛ of DMSO added to wells in row P on the source plate allow for DMSO normalisation across the dose range. To dose the control wells 40 μL of DMSO was added to row O1 and 40 μL of 100 μM fulvestrant in DMSO was added to row O3 on the compound source plate. […] Compounds were dispensed onto the cell plates with a compound source plate prepared as above producing a 12 pt duplicate 3 μM to 3 pM dose range with 3 fold dilutions and one final 10 fold dilution using the Integrated Echo 2 workcell. […] Cells were fixed at room temperature for 20 mins before being washed two times with 250 μL PBS/Proclin (PBS with a Biocide preservative) using a BioTek platewasher, 40 μL of PBS/Proclin was then added to all wells and the plates stored at 4° C. The fixing method described above was carried out on the Integrated Echo 2 workcell. Immunostaining was performed using an automated AutoElisa workcell. The PBS/Proclin was aspirated from all wells and the cells permeabilised with 40 μL PBS containing 0.5% Tween™ 20 (v/v) for 1 hour at room temperature. The plates were washed three times in 250 μL of PBS/0.05% (v/v) Tween 20 with Proclin (PBST with a Biocide preservative) and then 20 μL of ERα (SP1) Rabbit monoclonal antibody (Thermofisher) 1:1000 in PBS/Tween™/3% (w/v) Bovine Serum Albumin was added. The plates were incubated overnight at 4° C. (Liconic carousel incubator) and then washed three times in 250 μL of PBS/0.05% (v/v) Tween™ 20 with Proclin (PBST). The plates were then incubated with 20 μL/well of a goat anti-rabbit IgG AlexaFluor 594 or goat anti-rabbit AlexaFluor 488 antibody (Molecular Probes) with Hoechst at 1:5000 in PBS/Tween™/3% (w/v) Bovine Serum Albumin for lhour at room temperature. The plates were then washed three times in 250 μL of PBS/0.05% (v/v) Tween™ 20 with Proclin (PBST with a Biocide preservative). 20 μL of PBS was added to each well and the plates covered with a black plate seal and stored at 4° C. before being read. Plates were read using a Cellomics Arrayscan reading the 594 nm (24 hr time point) or 488 nm (5 hr timepoint) fluorescence to measure the ERα receptor level in each well. The mean total intensity was normalized for cell number giving the total intensity per cell.
With `COc1cc(OCCN2CC(CF)C2)cc(F)c1[C@@H]1c2ccc3[nH]ncc3c2C[C@@H](C)N1CC(F)(F)CO` [Example 26, 2,2-difluoro-3-((6S,8R)-6-(2-fluoro-4-(2-(3-(fluoromethyl)azetidin-1-yl)ethoxy)-6-methoxyphenyl)-8-methyl-8,9-dihydro-3H-pyrazolo[4,3-f]isoquinolin-7(6H)-yl)propan-1-ol], the DC50 turned out to be 0.13 nM.
As to `CC(C)(F)CN1C(c2c(F)cc(OCCN3CC(CF)C3)cc2F)c2ccc3[nH]ncc3c2CC1(C)C` (centres unmarked) [Example 37, 6-(2,6-difluoro-4-(2-(3-(fluoromethyl)azetidin-1-yl)ethoxy)phenyl)-7-(2-fluoro-2-methylpropyl)-8,8-dimethyl-6,7,8,9-tetrahydro-3H-pyrazolo[4,3-f]isoquinoline], the DC50 was 0.16 nM.
Same read-out and setting: for `CC1(C)Cc2c(ccc3[nH]ncc23)C(c2ccc(OCCN3CC(CF)C3)cn2)N1CC(F)F` (centres unmarked) [Example 45, 7-(2,2-difluoroethyl)-6-(5-(2-(3-(fluoromethyl)azetidin-1-yl)ethoxy)pyridin-2-yl)-8,8-dimethyl-6,7,8,9-tetrahydro-3H-pyrazolo[4,3-f]isoquinoline] the value was 3.1 nM.
On to `COc1cc(OCCN2CC(C)C2)ccc1[C@@H]1c2ccc3[nH]ncc3c2C[C@@H](C)N1CC(C)(C)F` [Example 23, (6S,8R)-7-(2-fluoro-2-methylpropyl)-6-(2-methoxy-4-(2-(3-methylazetidin-1-yl)ethoxy)phenyl)-8-methyl-6,7,8,9-tetrahydro-3H-pyrazolo[4,3-f]isoquinoline], for which the DC50 is 0.24 nM.
On to `COc1cc(OCCN2CC(CF)C2)ccc1[C@@H]1c2ccc3[nH]ncc3c2C[C@@H](C)N1CC(F)(F)F` [Example 12, (6S,8R)-6-(4-(2-(3-(fluoromethyl)azetidin-1-yl)ethoxy)-2-methoxyphenyl)-8-methyl-7-(2,2,2-trifluoroethyl)-6,7,8,9-tetrahydro-3H-pyrazolo[4,3-f]isoquinoline], for which the DC50 came out at 0.051 nM.
As to `C[C@@H]1Cc2c(ccc3[nH]ncc23)[C@@H](c2ccc(OCCN3CC(CF)C3)cc2C#N)N1CC1(F)CC1` [Example 39, 2-((6S,8R)-7-((1-fluorocyclopropyl)methyl)-8-methyl-6,7,8,9-tetrahydro-3H-pyrazolo[4,3-f]isoquinolin-6-yl)-5-(2-(3-(fluoromethyl)azetidin-1-yl)ethoxy)benzonitrile], the DC50 came out at 0.17 nM.
For `COc1cc(OCCN2CC(CF)C2)ccc1[C@@H]1c2ccc3[nH]ncc3c2C[C@@H](C)N1CC1(F)COC1` [Example 13, (6S,8R)-6-(4-(2-(3-(fluoromethyl)azetidin-1-yl)ethoxy)-2-methoxyphenyl)-7-((3-fluorooxetan-3-yl)methyl)-8-methyl-6,7,8,9-tetrahydro-3H-pyrazolo[4,3-f]isoquinoline], the DC50 is 0.23 nM.
Take `COc1cc(OCCN2CC(CF)C2)ncc1[C@@H]1c2ccc3[nH]ncc3c2C[C@@H](C)N1CC1(F)CC1` [Example 42, (6S,8R)-7-((1-fluorocyclopropyl)methyl)-6-(6-(2-(3-(fluoromethyl)azetidin-1-yl)ethoxy)-4-methoxypyridin-3-yl)-8-methyl-6,7,8,9-tetrahydro-3H-pyrazolo[4,3-f]isoquinoline]: the DC50 is 0.59 nM.
Still for that read-out and setting: for `C[C@@H]1Cc2c(ccc3[nH]ncc23)[C@@H](c2c(F)cc(OCCN3CC(CF)C3)cc2F)N1CC(F)CF` (single isomer, unassigned) [Example 34] the value was 0.28 nM; for `C[C@@H]1Cc2c(ccc3[nH]ncc23)[C@@H](c2ncc(OCCN3CC(CF)C3)cc2F)N1CC(F)F` [Example 48, (6S,8R)-7-(2,2-difluoroethyl)-6-(3-fluoro-5-(2-(3-(fluoromethyl)azetidin-1-yl)ethoxy)pyridin-2-yl)-8-methyl-6,7,8,9-tetrahydro-3H-pyrazolo[4,3-f]isoquinoline], 1.9 nM.
Regarding `C[C@@H]1Cc2c(ccc3[nH]nc(F)c23)[C@@H](c2c(F)cc(OCCN3CC(CF)C3)cc2F)N1CC1(F)COC1` [Example 43, (6S,8R)-6-(2,6-difluoro-4-(2-(3-(fluoromethyl)azetidin-1-yl)ethoxy)phenyl)-1-fluoro-7-((3-fluorooxetan-3-yl)methyl)-8-methyl-6,7,8,9-tetrahydro-3H-pyrazolo[4,3-f]isoquinoline], the DC50 came out at 0.59 nM.
As to `C[C@@H]1Cc2c(ccc3[nH]ncc23)[C@@H](c2ccc(OCCN3CC(CF)C3)cn2)N1CC(C)(F)F` [Example 41, (6S,8R)-7-(2,2-difluoropropyl)-6-(5-(2-(3-(fluoromethyl)azetidin-1-yl)ethoxy)pyridin-2-yl)-8-methyl-6,7,8,9-tetrahydro-3H-pyrazolo[4,3-f]isoquinoline], the DC50 was 0.29 nM.
`COCC(C)(F)CN1[C@H](c2ccc(OCCN3CC(CF)C3)cc2OC)c2ccc3[nH]ncc3c2C[C@H]1C` (single isomer, unassigned) [Example 17]: the DC50 turned out to be 0.24 nM.
Regarding `COc1cc(OCCN2CC(CF)C2)cc(F)c1[C@@H]1c2ccc3[nH]ncc3c2C[C@@H](C)N1CC(C)(F)F` [Example 25, (6S,8R)-7-(2,2-difluoropropyl)-6-(2-fluoro-4-(2-(3-(fluoromethyl)azetidin-1-yl)ethoxy)-6-methoxyphenyl)-8-methyl-6,7,8,9-tetrahydro-3H-pyrazolo[4,3-f]isoquinoline], the DC50 is 0.11 nM.
Consider `COCC(C)(F)CN1[C@H](c2ccc(OCCN3CC(CF)C3)cc2OC)c2ccc3[nH]ncc3c2C[C@H]1C` (single isomer, unassigned) [Example 16], for which the DC50 is 0.44 nM.
For the compound `COc1cc(OCCN2CC(CF)C2)cc(F)c1[C@@H]1c2ccc3[nH]ncc3c2C[C@@H](C)N1CC(F)(F)CF` [Example 27, (6S,8R)-6-(2-fluoro-4-(2-(3-(fluoromethyl)azetidin-1-yl)ethoxy)-6-methoxyphenyl)-8-methyl-7-(2,2,3-trifluoropropyl)-6,7,8,9-tetrahydro-3H-pyrazolo[4,3-f]isoquinoline], the DC50 came to 0.059 nM.
Same read-out and setting: with `CC(C)CN1C(c2c(F)cc(OCCN3CC(CF)C3)cc2F)c2ccc3[nH]ncc3c2CC1(C)C` (centres unmarked) [Example 36, 6-(2,6-difluoro-4-(2-(3-(fluoromethyl)azetidin-1-yl)ethoxy)phenyl)-7-isobutyl-8,8-dimethyl-6,7,8,9-tetrahydro-3H-pyrazolo[4,3-f]isoquinoline] the figure was 0.25 nM; with `COc1cc(OCCN2CC(CF)C2)ccc1[C@@H]1c2ccc3[nH]ncc3c2C[C@@H](C)N1CC(C)(F)F` [Example 11, (6S,8R)-7-(2,2-difluoropropyl)-6-(4-(2-(3-(fluoromethyl)azetidin-1-yl)ethoxy)-2-methoxyphenyl)-8-methyl-6,7,8,9-tetrahydro-3H-pyrazolo[4,3-f]isoquinoline], 0.036 nM.
Regarding `COc1cc(OCCN2CC(CF)C2)ccc1[C@@H]1c2ccc3[nH]ncc3c2C[C@@H](C)N1CC(C)(F)CF` (single isomer, unassigned) [Example 20], the DC50 came to 0.13 nM.
Turning to `COc1cc(OCCN2CC(CF)C2)ccc1[C@@H]1c2ccc3[nH]ncc3c2C[C@@H](C)N1CC(F)(F)CO` [Example 14, 2,2-difluoro-3-((6S,8R)-6-(4-(2-(3-(fluoromethyl)azetidin-1-yl)ethoxy)-2-methoxyphenyl)-8-methyl-3,6,8,9-tetrahydro-7H-pyrazolo[4,3-f]isoquinolin-7-yl)propan-1-ol], the DC50 came to 0.15 nM.

Staying with this assay, now noted: MCF-7 cells; >90% unless otherwise stated.
With `COc1cc(OCCN2CC(C)C2)ccc1[C@@H]1c2ccc3[nH]ncc3c2C[C@@H](C)N1CC(C)(C)F` [Example 23, (6S,8R)-7-(2-fluoro-2-methylpropyl)-6-(2-methoxy-4-(2-(3-methylazetidin-1-yl)ethoxy)phenyl)-8-methyl-6,7,8,9-tetrahydro-3H-pyrazolo[4,3-f]isoquinoline], the “% downregulation (in brackets) in ER down regulation assay” value is given as 67%.
Same read-out and setting: for `COc1cc(OCCN2CC(OC)C2)ccc1[C@@H]1c2ccc3[nH]ncc3c2C[C@@H](C)N1CC(C)(C)F` [Example 24, (6S,8R)-7-(2-fluoro-2-methylpropyl)-6-(2-methoxy-4-(2-(3-methoxyazetidin-1-yl)ethoxy)phenyl)-8-methyl-6,7,8,9-tetrahydro-3H-pyrazolo[4,3-f]isoquinoline] the value was <50%; for `COCC(C)(F)CN1[C@H](c2ccc(OCCN3CC(CF)C3)cc2OC)c2ccc3[nH]ncc3c2C[C@H]1C` (single isomer, unassigned) [Example 16], 56%.
